Experimental data taken from the supplement of paper PMC10627819.

Assays:
B. subtilis 168 [1] = test: fitness (endpoint OD595 vs no drug) (fraction); higher = more growth
In short: (§1)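 With the first reading as background, OD595 was measured every 30 min for 14 h in 384-well plates kept at 37 °C and inoculated at OD595 0.01. TSB, LB Lennox or CY was the medium. Fitness is the optical density at the transition into stationary phase divided by the robust mean of no-drug control wells, with a cap of 1.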

S. aureus Newman [2] = test: as above; details: one replicate
In short: as §1

B. subtilis 168 [3] = test: Bliss interaction score (quartile over a dose matrix) (fitness difference); higher = more antagonism (negative = synergy)
In short: (§2)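 Growth was read as OD595 when cultures entered stationary phase, and each value was divided by the plate's robust no-drug mean and capped at 1. This normalised ratio is the fitness value, and fitness for each single drug came from the combination data. The Bliss score subtracts the expected fitness, taken as the product, from the observed fitness and is given as quartiles across technical, biological and donor/recipient replicates.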

S. aureus DSM 20231 = test: as above
In short: as §2

S. aureus Newman [4] = test: as above
In short: as §2

S. pneumoniae D39V = test: as above
In short: as §2

[5] = first compound 0.04875 µg/mL, partner 1.25 µg/mL
[6] = first compound 0.04875 µg/mL, partner 2.5 µg/mL
[7] = first compound 0.04875 µg/mL, partner 5 µg/mL
[8] = first compound 0.0975 µg/mL, partner 1.25 µg/mL
[9] = first compound 0.0975 µg/mL, partner 2.5 µg/mL
[10] = first compound 0.0975 µg/mL, partner 5 µg/mL
[11] = first compound 0.195 µg/mL, partner 1.25 µg/mL
[12] = first compound 0.195 µg/mL, partner 2.5 µg/mL
[13] = first compound 0.195 µg/mL, partner 5 µg/mL
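Wherever Bliss interaction score (quartile over a dose matrix) is given: first quartile when negative (synergy) and third quartile when positive (antagonism).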
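Wherever fitness (endpoint OD595 vs no drug) is given: OD595 on entry to stationary phase over no-drug wells; at most 1.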

## CO/N=C(\C(=O)N[C@@H]1C(=O)N2C(C(=O)O)=C(COC(N)=O)CS[C@H]12)c1ccco1 [Cefuroxime] + Cc1onc(-c2ccccc2)c1C(=O)N[C@@H]1C(=O)N2[C@@H]1SC(C)(C)[C@@H]2C(=O)O [Oxacillin]
B. subtilis 168 [1]; first compound 0.04875 µg/mL, partner 0.002 µg/mL, one replicate
  fitness: 0.882
B. subtilis 168 [1]; first compound 0.04875 µg/mL, partner 0.004 µg/mL, one replicate
  fitness: 0.858
B. subtilis 168 [1]; first compound 0.04875 µg/mL, partner 0.0078 µg/mL, one replicate
  fitness: 0.556
B. subtilis 168 [1]; first compound 0.04875 µg/mL, partner 0.008 µg/mL, one replicate
  fitness: 0.979
B. subtilis 168 [1]; first compound 0.04875 µg/mL, partner 0.0155 µg/mL, one replicate
  fitness: 0.507
B. subtilis 168 [1]; first compound 0.04875 µg/mL, partner 0.031 µg/mL, one replicate
  fitness: 0.507
B. subtilis 168 [1]; first compound 0.0975 µg/mL, partner 0.002 µg/mL, one replicate
  fitness: 0.734
B. subtilis 168 [1]; first compound 0.0975 µg/mL, partner 0.004 µg/mL, one replicate
  fitness: 0.866
B. subtilis 168 [1]; first compound 0.0975 µg/mL, partner 0.0078 µg/mL, one replicate
  fitness: 0.506
B. subtilis 168 [1]; first compound 0.0975 µg/mL, partner 0.008 µg/mL, one replicate
  fitness: 0.881
B. subtilis 168 [1]; first compound 0.0975 µg/mL, partner 0.0155 µg/mL, one replicate
  fitness: 0.454
B. subtilis 168 [1]; first compound 0.0975 µg/mL, partner 0.031 µg/mL, one replicate
  fitness: 0.486
B. subtilis 168 [1]; first compound 0.195 µg/mL, partner 0.002 µg/mL, one replicate
  fitness: 0.739
B. subtilis 168 [1]; first compound 0.195 µg/mL, partner 0.004 µg/mL, one replicate
  fitness: 0.705
B. subtilis 168 [1]; first compound 0.195 µg/mL, partner 0.0078 µg/mL, one replicate
  fitness: 0.375
B. subtilis 168 [1]; first compound 0.195 µg/mL, partner 0.008 µg/mL, one replicate
  fitness: 0.717
B. subtilis 168 [1]; first compound 0.195 µg/mL, partner 0.0155 µg/mL, one replicate
  fitness: 0.344
B. subtilis 168 [1]; first compound 0.195 µg/mL, partner 0.031 µg/mL, one replicate
  fitness: 0.367
B. subtilis 168 [1]; first compound 0.195 µg/mL, partner 0.075 µg/mL, one replicate
  fitness: 0.0418
B. subtilis 168 [1]; first compound 0.195 µg/mL, partner 0.15 µg/mL, one replicate
  fitness: 0.0405
B. subtilis 168 [1]; first compound 0.195 µg/mL, partner 0.3 µg/mL, one replicate
  fitness: 0.0333
B. subtilis 168 [1]; first compound 0.39 µg/mL, partner 0.075 µg/mL, one replicate
  fitness: 0.0582
B. subtilis 168 [1]; first compound 0.39 µg/mL, partner 0.15 µg/mL, one replicate
  fitness: 0.0174
B. subtilis 168 [1]; first compound 0.39 µg/mL, partner 0.3 µg/mL, one replicate
  fitness: 0.0294
B. subtilis 168 [1]; first compound 0.78 µg/mL, partner 0.075 µg/mL, one replicate
  fitness: 0.0387
B. subtilis 168 [1]; first compound 0.78 µg/mL, partner 0.15 µg/mL, one replicate
  fitness: 0.0089
B. subtilis 168 [1]; first compound 0.78 µg/mL, partner 0.3 µg/mL, one replicate
  fitness: 0.0244
B. subtilis 168 [1]; first compound 1.562 µg/mL, partner 0.002 µg/mL, one replicate
  fitness: 0.239
B. subtilis 168 [1]; first compound 1.562 µg/mL, partner 0.004 µg/mL, one replicate
  fitness: 0.138
B. subtilis 168 [1]; first compound 1.562 µg/mL, partner 0.008 µg/mL, one replicate
  fitness: 0.111
B. subtilis 168 [1]; first compound 3.125 µg/mL, partner 0.002 µg/mL, one replicate
  fitness: 0.137
B. subtilis 168 [1]; first compound 3.125 µg/mL, partner 0.004 µg/mL, one replicate
  fitness: 0.129
B. subtilis 168 [1]; first compound 3.125 µg/mL, partner 0.008 µg/mL, one replicate
  fitness: 0.0905
B. subtilis 168 [1]; first compound 6.25 µg/mL, partner 0.002 µg/mL, one replicate
  fitness: 0.11
B. subtilis 168 [1]; first compound 6.25 µg/mL, partner 0.004 µg/mL, one replicate
  fitness: 0.1
B. subtilis 168 [1]; first compound 6.25 µg/mL, partner 0.008 µg/mL, one replicate
  fitness: 0.0957
S. aureus Newman [2]; first compound 0.04875 µg/mL, partner 0.0156 µg/mL
  fitness: 0.813
S. aureus Newman [2]; first compound 0.04875 µg/mL, partner 0.0312 µg/mL
  fitness: 0.714
S. aureus Newman [2]; first compound 0.04875 µg/mL, partner 0.0625 µg/mL
  fitness: 0.447
S. aureus Newman [2]; first compound 0.0975 µg/mL, partner 0.0156 µg/mL
  fitness: 0.766
S. aureus Newman [2]; first compound 0.0975 µg/mL, partner 0.0312 µg/mL
  fitness: 0.671
S. aureus Newman [2]; first compound 0.0975 µg/mL, partner 0.0625 µg/mL
  fitness: 0.436
S. aureus Newman [2]; first compound 0.195 µg/mL, partner 0.0156 µg/mL
  fitness: 0.754
S. aureus Newman [2]; first compound 0.195 µg/mL, partner 0.0312 µg/mL
  fitness: 0.694
S. aureus Newman [2]; first compound 0.195 µg/mL, partner 0.0625 µg/mL
  fitness: 0.323
B. subtilis 168 [3]
  Bliss interaction score: -0.0556
S. aureus DSM 20231
  Bliss interaction score: 0.0493
S. aureus Newman [4]
  Bliss interaction score: -0.0271
S. pneumoniae D39V
  Bliss interaction score: -0.115

## CO/N=C(\C(=O)N[C@@H]1C(=O)N2C(C(=O)O)=C(COC(N)=O)CS[C@H]12)c1ccco1 [Cefuroxime] + C[n+]1ccc(-c2cc[n+](C)cc2)cc1 [Paraquat]
B. subtilis 168 [1]; [5]
  fitness: 0.705
B. subtilis 168 [1]; [6]
  fitness: 0.682
B. subtilis 168 [1]; [7]
  fitness: 0.632
B. subtilis 168 [1]; [8]
  fitness: 0.633
B. subtilis 168 [1]; [9]
  fitness: 0.625
B. subtilis 168 [1]; [10]
  fitness: 0.584
B. subtilis 168 [1]; [11]
  fitness: 0.539
B. subtilis 168 [1]; [12]
  fitness: 0.522
B. subtilis 168 [1]; [13]
  fitness: 0.366
B. subtilis 168 [1]; first compound 1.562 µg/mL, partner 1.25 µg/mL, one replicate
  fitness: 0.224
B. subtilis 168 [1]; first compound 1.562 µg/mL, partner 2.5 µg/mL, one replicate
  fitness: 0.179
B. subtilis 168 [1]; first compound 1.562 µg/mL, partner 5 µg/mL, one replicate
  fitness: 0.147
B. subtilis 168 [1]; first compound 3.125 µg/mL, partner 1.25 µg/mL, one replicate
  fitness: 0.144
B. subtilis 168 [1]; first compound 3.125 µg/mL, partner 2.5 µg/mL, one replicate
  fitness: 0.131
B. subtilis 168 [1]; first compound 3.125 µg/mL, partner 5 µg/mL, one replicate
  fitness: 0.0619
B. subtilis 168 [1]; first compound 6.25 µg/mL, partner 1.25 µg/mL, one replicate
  fitness: 0.0805
B. subtilis 168 [1]; first compound 6.25 µg/mL, partner 2.5 µg/mL, one replicate
  fitness: 0.0628
B. subtilis 168 [1]; first compound 6.25 µg/mL, partner 5 µg/mL, one replicate
  fitness: 0.0182
S. aureus Newman [2]; [5]
  fitness: 0.955
S. aureus Newman [2]; [6]
  fitness: 0.88
S. aureus Newman [2]; [7]
  fitness: 0.993
S. aureus Newman [2]; [8]
  fitness: 0.906
S. aureus Newman [2]; [9]
  fitness: 0.924
S. aureus Newman [2]; [10]
  fitness: 0.907
S. aureus Newman [2]; [11]
  fitness: 0.963
S. aureus Newman [2]; [12]
  fitness: 0.937
S. aureus Newman [2]; [13]
  fitness: 0.939
B. subtilis 168 [3]
  Bliss interaction score: -0.0801
S. aureus DSM 20231
  Bliss interaction score: 0.0764
S. aureus Newman [4]
  Bliss interaction score: -0.0456
S. pneumoniae D39V
  Bliss interaction score: -0.0322
